Laboratory results from ChEMBL document CHEMBL1138036, “Simplified cyclic analogues of bastadin-5. Structure-activity relationships for modulation of the RyR1/FKBP12 Ca2+ channel complex” (J Med Chem, 2006).

What was measured:
[1] = target: RyR1/FKBP12 (Oryctolagus cuniculus); assay: Antagonist like activity at skeletal junction sarcoplasmic reticulum RyR1/FKBP12 complex assessed as decrease in [3H]ryanodine binding
[2] = target: RyR1/FKBP12 (Oryctolagus cuniculus); assay: Agonist like activity at skeletal junction sarcoplasmic reticulum RyR1/FKBP12 complex assessed as increase in [3H]ryanodine binding

| SMILES | IC50 [1] [µM] | EC50 [2] [µM] |
| --- | --- | --- |
| O=C1CCNC(=O)CCc2cc(Br)c(cc2Br)Oc2cc(cc(Br)c2O)CCN1 | 47 |  |
| [N-]=[N+]=Nc1cc2ccc1Oc1cc(cc(Br)c1O)CCNC(=O)CCNC(=O)CC2 |  | 20 |
| O=C1CCc2ccc(cc2)Oc2cc(cc(Br)c2O)CCN1 |  | > 100 |
| Nc1cc2ccc1Oc1cc(cc(Br)c1O)CCNC(=O)CCNC(=O)CC2 |  | 21 |
| Nc1cc2ccc1Oc1cc(cc(Br)c1O)CCNC(=O)CC2 |  | 33 |
| O=C1CCNC(=O)CCc2ccc(c([N+](=O)[O-])c2)Oc2cc(cc(Br)c2O)CCN1 |  | 24 |
| COC(=O)c1cc(I)ccc1N=[N+]=[N-] |  | > 100 |
| [N-]=[N+]=Nc1ccc(I)cc1C(=O)NCCCC[C@H]1CC(=O)NCCc2cc(Br)c(O)c(c2)Oc2ccc(cc2Br)CCC(=O)N1 |  | > 100 |
| [N-]=[N+]=Nc1ccc(I)cc1C(=O)NCCCC[C@H]1CC(=O)NCCc2cc(Br)c(O)c(c2)Oc2cc(Br)c(cc2Br)CCC(=O)N1 |  | 6.5 |
| O=C1CCc2ccc(c(I)c2)Oc2cc(cc(Br)c2O)CCN1 |  | 28.6 |
| [N-]=[N+]=Nc1cc2ccc1Oc1cc(cc(Br)c1O)CCNC(=O)CC2 | 63 |  |
| O=C1CCc2cc(Br)c(cc2Br)Oc2cc(cc(Br)c2O)CCN1 |  | > 100 |
| O=C1CCc2ccc(c([N+](=O)[O-])c2)Oc2cc(cc(Br)c2O)CCN1 |  | 20.9 |
| O=C1CCc2ccc(c(Br)c2)Oc2cc(cc(Br)c2O)CCN1 |  | 10.9 |
